From article PMC12057046, “Elucidation of short linear motif-based interactions of the MIT and rhodanese domains of the ubiquitin-specific protease 8” (Biology Direct, 2025)

How the values were obtained:
USP8 Rhod domain [1] = target: T1, USP8 Rhod domain (Homo sapiens, UniProt P40818); assay: ProP-PD selection against USP8 Rhod domain; format: binding; conditions: for NGS counts (%): ProP-PD, human disorderome library, GST-tagged Rhod bait, four rounds of selection, Fig. 3A; for max_counts: Total NGS counts; for Counts: fraction of NGS counts for a selection; for Promiscuity: number of baits selections where the peptide has been observed, calculated on the domain level; for Replicates: number of screens against the bait protein in which the peptide has been found; for Specificity: proportion for the current bait of the total NGS read counts of the peptide for all baits screened with this library
T1 construct: USP8 Rhod (174–317) (UniProt: P40818); GST (cleaved yes); made in house; host or cells: Escherichia coli BL21-Gold (DE3)
T1 sequence (P40818 174-317): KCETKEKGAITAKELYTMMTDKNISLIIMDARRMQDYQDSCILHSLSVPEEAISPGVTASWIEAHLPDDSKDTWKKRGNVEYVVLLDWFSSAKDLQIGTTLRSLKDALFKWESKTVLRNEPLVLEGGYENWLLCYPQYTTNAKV
Experimental: We next evaluated the peptide binding of the Rhod domain by ProP-PD selections. […] (February 2025).
Four rounds of phage selections were carried out using the second generation human disorderome library or the constructed deep mutational scanning library. At least three individual replicates were used for each bait protein. 10 µg of GST-tagged proteins or GST control (diluted in PBS from the stock of proteins kept in the purification elution buffer) were immobilized in 100 µL PBS on a 96-well MaxiSorp (Nunc) plate overnight at 4 °C. The plates were incubated with blocking buffer (with 0.5% BSA in PBS) for 1 h at 4 °C followed by washing with 0.05% Tween 20 in PBS four times. The naïve phage library (10^11 CFU) was diluted in 1/5th volume PEG/NaCl (20% PEG-8000, 0.4 M NaCl) and 1X PBS, incubated on ice for 10 min and centrifuged at 10,000 [drawing 3] g for 10 min. The pellet was resuspended in the volume of PBS (100 µL/ well). The GST-coated control plate was incubated with 100 µL library per well in PBS for 1 h at 4 °C to remove non-specific binders. The supernatant was transferred to the target wells and incubated for 2 h at 4 °C. The wells were washed five times with 0.05% Tween 20 in PBS and the bound phages were eluted with 100 µL per well log-phase E. coli OmniMAX by incubating at 37° C while shaking. After 30 min, M13KO7 helper phages were added and incubated for an additional 45 min. The bacterial cultures were transferred to 1 mL 2YT supplemented with 100 µg/mL carbenicillin, 30 µg/mL kanamycin and 0.3 mM IPTG and grew overnight at 37 °C while shaking. The following day the cultures were centrifuged for 10 min at 2,000 [drawing 4] g, 4 °C. 1/10th volume of 10 [drawing 5] PBS was added to adjust the pH and heated at 65 °C for 10 min. The phage pools from each round were used as in-phages for the next round of selections.
The samples were prepared for NGS as previously described. […] The PCR products were normalized with 25 µL Mag-bind Total Pure NGS beads (Omega Biotek) and 10 µL of each eluted sample (Qiagen Elution Buffer) was pooled and cleaned-up with a PCR purification kit (Qiagen). The PCR product was confirmed by 2% agarose electrophoresis and the band was extracted with QIAquick Gel extraction Kit (Qiagen) and eluted with 30 µL TE buffer. The dsDNA was quantified using QuantiT PicoGreen dsDNA Assay Kit (Thermo Fisher) and sent for NGS (Illumina MiSeq v3, 1 × 150 bp read setup, 20% PhiX, NGI SciLifeLab facility, Sweden). The NGS data were demultiplexed, adapter regions were trimmed and sequences with an average quality of at least 20 were translated to peptide sequences. The NGS data were analysed using custom Python scripts. The total read NGS counts for each selection experiment of each peptide sequence were compiled and annotated in PepTools (https://slim.icr.ac.uk/tools/peptools/). Since ProP-PD is in essence a competition assay, the possibility of the input phage library influencing the selection outcome was explored. […] Pearson correlation coefficient and p-value were calculated using Python’s SciPy library.

USP8 Rhod domain [2] = target: T1, USP8 Rhod domain; assay: SPOT array of predicted peptides from known interactors, USP8 Rhod domain; format: binding; conditions: for Percentage (%) normalized to highest intensity and corrected for background: Rhod-Peptide screening, SPOT array of predicted peptides, KIAA1614 positive control = 100; for SPOT intensity in words: GST-tagged Rhod 150 µM, positive control KIAA1614_568 − 583, array of 42 predicted peptides
Excerpt: The results therefore support that the USP8 Rhod domain binds to two distinct types of motifs (Fig. 4A, B). We used the motifs to scan for matching motifs in previously reported interactors using the SLiMSearch algorithm (Supplementary Table S8 A). As there was no clear match for the TET3-type motif except from only one hit, we focused on the KIAA1614-type motif. […] Both TP63 and USP21 are previously reported USP8 substrates, and the interactions may potentially contribute to substrate targeting. […] As the SHANK3 peptides (351-[…]−365 and 392-[…]−406) are closely located in the primary structure of SHANK3, it is tempting to speculate that both motifs contribute to the interactions between the full-length proteins by increasing the local concentration of binding motifs. […] Taken together, we find that the USP8 Rhod domain is a peptide binding domain that can be bound by peptides of two distinct types of motifs, with the Rx[LI]xGxxxPxxL motif and variants thereof being found in known USP8 substrates.
SPOT array alanine scanning of peptides was designed, and cellulose-bound peptides were synthesized using Fluorenylmethyloxycarbonyl (Fmoc) solid phase synthesis with a MultiPep synthesizer (INTAVIS Peptide Services, Tübingen, Germany). The membranes of predicted peptides were purchased by JPT Peptide Technologies (Berlin, Germany). The membranes were incubated with blocking buffer containing 5% skim milk in TBST (50 mM Tris, 150 mM NaCl pH 7.5, 0.05% Tween-20) for two hours at room temperature. The blocked membranes were incubated with GST-tagged proteins (100 µM for MIT domain and 150 µM for the Rhodanese domain) in blocking buffer overnight at 4 °C. After rinsed with TBST the membranes were incubated with HRP-conjugated anti-GST antibody (Cytiva, RPN1236; 1:3000 dilution) in blocking buffer for 1 h at 4 °C and subsequently rinsed with TBST to remove any excess antibody. The ECL reagent (Clarity Max Western ECL substrate, 1705062, BioRad) was used for chemiluminescence read-out with the ChemiDoc Imaging system (BioRad). The images were analysed with Fiji (ImageJ2 version 2.9.0). SLiMSearch4 was used to design the peptide arrays with known interactors predicted to contain the motifs. The background signal intensity was subtracted, and the corrected signal intensities were normalized to the positive control and presented as percentage.

## HIWHYDEEYLPDASKP [TTBK2, Tau-tubulin kinase 2 peptide 503-518]
USP8 Rhod domain [1]
  NGS counts (%): 0.06%
  max_counts: 76
  Counts: 0.0007473
  Promiscuity: 7
  Replicates: 2
  Specificity: 0.5152

## LMNFLGDSNPFNLLRM [BCL11B, B-cell lymphoma/leukemia 11B peptide 279-294]
USP8 Rhod domain [1]
  NGS counts (%): 0.58%
  max_counts: 421
  Counts: 0.006181
  Promiscuity: 6
  Replicates: 3
  Specificity: 0.9228

## QPNHGLALWEAKMKQL [TET3 1701-1716, Methylcytosine dioxygenase TET3 peptide, overlapping]
USP8 Rhod domain [1]
  max_counts: 7
  Counts: 0.00009459587683709846
  Promiscuity: 2
  Replicates: 3
  Specificity: 0.8889

## RALLERCLKGEGEIE
USP8 Rhod domain [2]
  Percentage (%) normalized to highest intensity and corrected for background: 2%

## SCISEWEQKIPTYN
USP8 Rhod domain [2]
  Percentage (%) normalized to highest intensity and corrected for background: 6%

## SLASVRGLQGRSMSV
USP8 Rhod domain [2]
  Percentage (%) normalized to highest intensity and corrected for background: 5%

## SLRRLGGFPGPPTLFS
USP8 Rhod domain [2]
  Percentage (%) normalized to highest intensity and corrected for background: 39%

## SLRSLPHQLLLQRLQ
USP8 Rhod domain [2]
  Percentage (%) normalized to highest intensity and corrected for background: 7%

## SLRSLPHQLLLQRLQ [SHANK3 peptide]
USP8 Rhod domain [2]
  SPOT intensity in words: Weaker signals

## SPARSSPELLPSGV
USP8 Rhod domain [2]
  Percentage (%) normalized to highest intensity and corrected for background: 1.56%

## SPEKSSPQALVPNG
USP8 Rhod domain [2]
  Percentage (%) normalized to highest intensity and corrected for background: 1%

## SPLGRPESLLQSNTL
USP8 Rhod domain [2]
  Percentage (%) normalized to highest intensity and corrected for background: -0.544%

## SQLPSSPAQLSCRS
USP8 Rhod domain [2]
  Percentage (%) normalized to highest intensity and corrected for background: 9%

## SRSLSPTRLLSLPPD
USP8 Rhod domain [2]
  Percentage (%) normalized to highest intensity and corrected for background: 6.64%

## SSNSHRSLDGLSRTQ
USP8 Rhod domain [2]
  Percentage (%) normalized to highest intensity and corrected for background: 5.49%

## SSTSTRHLQGVEFEM
USP8 Rhod domain [2]
  Percentage (%) normalized to highest intensity and corrected for background: -1.73%

## SWAAGPGSLLAWLIL
USP8 Rhod domain [2]
  Percentage (%) normalized to highest intensity and corrected for background: 1.45%

## SYAKRRRLAGPSGLA
USP8 Rhod domain [2]
  Percentage (%) normalized to highest intensity and corrected for background: 7%

## SYAKRRRLAGPSGLA [SHANK3 peptide]
USP8 Rhod domain [2]
  SPOT intensity in words: Weaker signals

## TASSLPRKLLPWEEG
USP8 Rhod domain [2]
  Percentage (%) normalized to highest intensity and corrected for background: -1.1%

## TGLTVPPALLRANSD
USP8 Rhod domain [2]
  Percentage (%) normalized to highest intensity and corrected for background: -1.11%

## TRKFSSPPPLSITK
USP8 Rhod domain [2]
  Percentage (%) normalized to highest intensity and corrected for background: 6%

## YDTLIIRDYTQSSSSL [GRM5, Metabotropic glutamate receptor 5 peptide 1197-1212]
USP8 Rhod domain [1]
  NGS counts (%): 0.02%
  max_counts: 23
  Counts: 0.0001477
  Promiscuity: 4
  Replicates: 2
  Specificity: 0.5417
